Broadly, the Cmax is the peak of the concentration-time curve.

The results in this text go back to patent US9670156B2, “Crystal form III of (S)-oxiracetam, preparation method and use thereof” (Chongqing Runze Pharmaceutical Company Limited, priority 2013, dated 2017).

On the set-up of data set [1]: species or system Beagle dogs. As to conditions: dog, in vivo; for AUCO-∞ / T1/2 / Tmax / bioavailability of crystal form I and III compared: po. From the text:
Base on the existing LC-MS method for determination of (S)-oxiracetam in a biological sample, 6 healthy Beagle dogs are used in the experiment. They are weighted 8-10 kg, and divided into two groups of three. They are used to observe the bioavailability of the different crystal forms of (S)-oxiracetam after oral administration to the dogs. The pharmacokinetics of the crystal forms I and III of (S)-oxiracetam in the dogs are studied. And oxiracetam is used as reference preparation to evaluate whether the bioavailability of crystal forms I and III are equivalent. The bioequivalence is evaluated by calculating the pharmacokinetic parameters. Results: The main pharmacokinetic parameters of the crystal forms I and III of (S)-oxiracetam in the Beagle dogs are as follows: Tmax are (1.561±0.398) and (1.498±0.3988), Cmax are (198.076±80.462) and (186.205±50.321) […], respectively; T1/2 are (0.915±0.125) and (0.909±0.112) h, respectively; and AUCO-∞ are (456.268±85.567) and (436.364±75.204) […], respectively.

On the set-up of data set [2]: species or system Beagle dogs. The conditions noted are these: dog, in vivo, po.
Data set [3] is described as follows: Dissolution in aqueous solution compared with other crystal forms. Type of data set: physicochemical. As to conditions: compared with other crystal forms of (S)-oxiracetam.

Consider `NC(=O)CN1C[C@@H](O)CC1=O` [crystal form I, (S)-4-hydroxy-2-oxo-1-pyrrolidine acetamide], for which, in data set [1], the “AUCO-∞” value worked out at 456268 ± 85567 µg·h/mL; the T1/2 came out at 54.9 ± 7.5 min; the Tmax stood at 1.561±0.398; the “bioavailability of crystal form I and III compared” value was “exactly the same”. Moreover, in data set [2], the Cmax amounted to 198 ± 80.5 µg/mL.

For `NC(=O)CN1C[C@@H](O)CC1=O` [crystal form III, (S)-4-hydroxy-2-oxo-1-pyrrolidine acetamide], in data set [3], the “dissolution in aqueous solution” value was “dissolves fast”. Also, in data set [1], the bioavailability result was “high bioavailability”, the “AUCO-∞” value worked out at 436364 ± 75204 µg·h/mL, the T1/2 worked out at 54.5 ± 6.72 min and the Tmax worked out at 1.498±0.3988. The “bioavailability of crystal form I and III compared” value in data set [1] is listed as “exactly the same”. In addition, the Cmax in data set [2] worked out at 186 ± 50.3 µg/mL.
